Here are results for 13 molecules from ChEMBL document CHEMBL1137044, “Benzothiophene and naphthalene derived constrained SERMs” (Bioorg Med Chem Lett, 2004).

As usually defined, the Ki is the equilibrium dissociation constant of an inhibitor or competing ligand from its target. A high value points to weaker binding. Broadly, the EC50 is the concentration that produces a half-maximal response. A high value points to a less potent agent. As a reminder, the IC50 is the concentration at which inhibition is half-maximal. Lower therefore signals greater potency in that assay.

A short description of assay [1]: Inhibition of [3H]estradiol binding to Estrogen receptor beta.
The nature of assay [2]: Inhibition of [3H]estradiol binding to Estrogen receptor alpha.
Assay [3] concerns the target T1, Estrogen receptor (Homo sapiens, UniProt Q92731+P03372). As to the kind of experiment: Agonist activity as alkaline phosphatase induction in Ishikawa endometrial cells compared to E2. Type of assay: functional, cell-based.
In assay [4] the target is T1, Estrogen receptor. It is filed as functional, cell-based. Particulars: ishikawa.
Assay [5] has as its target T1, Estrogen receptor. As to the kind of experiment: Antagonist effect against 10 pM 17-beta-estradiol induced MCF-7 cell proliferation. It is filed as functional, cell-based.

As for `Oc1ccc2c(c1)Cc1ccc3cc(O)ccc3c1C2c1ccc(OCCN2CCCCC2)cc1` (single isomer, unassigned), the Ki in assay [1] came out at 4.4 nM; in assay [2], 0.7 nM.
The matching figures for `CCC(=C(c1ccc(O)cc1)c1ccc(OCCN(C)C)cc1)c1ccccc1`: 0.5 nM and 0.5 nM.
In the case of `Oc1ccc2c(c1)C(c1ccc(C(O)CCN3CCCCC3)cc1)c1c(sc3cc(O)ccc13)C2` (stereo not drawn), at Estrogen receptor [3], the EC50 came out at 0.9 nM. Moreover, the inhibitory constant (Ki) was 0.9 nM in assay [1] and 0.5 nM in assay [2]. Besides, the IC50 against Estrogen receptor [4] is on record as 53 nM; on Estrogen receptor [5] it was 0.9 nM.
Take `Oc1ccc2c(c1)Cc1sc3cc(O)ccc3c1C2c1ccc(C(O)CCN2CCCCC2)cc1` (stereo not drawn): the EC50 on Estrogen receptor [3] amounted to 0.4 nM. The Ki stood at 1.3 nM in assay [1] and 0.7 nM in assay [2]. Also, the IC50 against Estrogen receptor [4] stood at 45 nM; against Estrogen receptor [5], 0.7 nM.
Consider `Oc1ccc2c3c(sc2c1)Cc1ccccc1C3c1ccc(C(O)CCN2CCCCC2)cc1` (stereo not drawn), for which the EC50 on Estrogen receptor [3] is listed as 3.5 nM. The values for the Ki in assay [1] and in assay [2] were 5.3 nM and 2.4 nM, respectively. Moreover, the IC50 on Estrogen receptor [4] came to 710 nM; against Estrogen receptor [5], 17 nM.
In the same order, the values of `Oc1ccc2c(c1)sc1cc3ccc(O)cc3c(-c3ccc(C(O)CCN4CCCCC4)cc3)c12` (stereo not drawn) are 1.6 nM, 0.3 nM, 0.4 nM, 690 nM and 1 nM.
Consider `Oc1ccc2c(c1)Cc1ccc3cc(O)ccc3c1C2c1ccc(OCCN2CCCCC2)cc1` (stereo in doubt; form 1), for which the Ki in assay [1] is 5.5 nM; in assay [2], 1.1 nM.
The molecule `Oc1ccc2c3c(sc2c1)Cc1cccc(O)c1C3c1ccc(C(O)CCN2CCCCC2)cc1` (stereo not drawn) returned an EC50 at Estrogen receptor [3] of 3.1 nM. The Ki in assay [1] amounted to 14 nM; in assay [2], 2.6 nM. Also, the figures for the half-inhibitory concentration (IC50) against Estrogen receptor [4] and on Estrogen receptor [5] were 680 nM and 42 nM, respectively.
The matching figures for `Oc1ccc2c3c(ccc2c1)Cc1c(O)cccc1C3c1ccc(OCCN2CCCCC2)cc1` (stereo not drawn): 0.7 nM, 5.4 nM, 1.1 nM, 50 nM and 2.9 nM.
As to `Oc1ccc2c(c1)Cc1ccc3cc(O)ccc3c1C2c1ccc(OCCN2CCCCC2)cc1` (stereo in doubt; form 2), the Ki was 4.2 nM in assay [1] and 0.8 nM in assay [2].
At Estrogen receptor [3], `Oc1ccc2c(c1)C(c1ccc(OCCN3CCCCC3)cc1)c1c(ccc3cc(O)ccc13)C2` (stereo not drawn) gave a 50% effective concentration (EC50) of 2.6 nM. The figures for the Ki in assay [1] and in assay [2] were 3.2 nM and 1 nM, respectively. In addition, the IC50 against Estrogen receptor [4] is listed as 130 nM; on Estrogen receptor [5] it was 6.6 nM.
At Estrogen receptor [3], `Oc1ccc2c3c(ccc2c1)Cc1cccc(O)c1C3c1ccc(OCCN2CCCCC2)cc1` (stereo not drawn) yielded an EC50 of 28 nM. Besides, the results for the Ki in assay [1] and in assay [2] were 40 nM and 7.7 nM, respectively. The IC50 is 580 nM against Estrogen receptor [4] and 68 nM at Estrogen receptor [5].
In the same order, the values of `Oc1ccc2c(ccc3cc4ccc(O)cc4c(-c4ccc(OCCN5CCCCC5)cc4)c32)c1` are 10 nM, 0.5 nM, 0.8 nM, 820 nM and 57 nM.
